From patent US6642217B2, “Triterpenes having human antifungal and antiyeast activity” (Naturtek, LLC, priority 2000, dated 2003)

Tests used:
Trichophyton rubrum [1] = assay: Direct addition method, solid compound in Sabouraud dextrose agar; type: cell-based; conditions: against Trichophyton rubrum
Experimental: (§1) Direct addition method. Sabouraud dextrose agar was prepared according to the manufacturer's instructions and 5.0 ml was dispensed in each 100×25 mm tube. The tubes were autoclaved. To each tube containing 5.0 ml of liquid agar at 45° C., 20 mg of solid test compound was added, to give a final concentration of 4 mg/ml. The agar was solidified in slants. The fungal cultures were then innoculated. The slants were incubated at 25-28 ° C. for 10-12 days, and the growth of the fungus was recorded every second day. The results in Table 2 indicate growth at the 12th day of inoculation.

Microsporum audouinni [2] = assay: as above; type: cell-based, Microsporum audouinii; parameters: key to Fungal growth: +++: Maximum Fungal Growth; ++: Moderate Fungal Growth; +: Minimum Fungal Growth; +/−: Very little Fungal Growth; −: No Fungal Growth; conditions: 4 mg/mL of agar; 12th day after inoculation
Procedure, shortened: (§2)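 Solid test compound was added directly to molten, autoclaved Sabouraud dextrose agar at 45° C. to a final concentration of 4 mg/ml, and slants were set and inoculated with the fungus. Slants were incubated at 25-28° C. for 10-12 days, with growth recorded every second day and reported at day 12.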

Pityrosporum ovale [3] = assay: Direct addition into the Pityrosporum agar; type: cell-based; parameters: key to Pityrosporum ovale growth: +++: Maximum Growth; ++: Moderate Growth; +: Minimum Growth; +/−: Very Little Growth; −: No Growth; conditions: for Pityrosporum ovale growth: 4 mg/ml in the agar, 18 hours after inoculation
Experimental: Direct addition method. Sabouraud dextrose agar was prepared according to the manufacturer's instructions and 5.0 ml was dispensed in each 100×25 mm tube. The tubes were autoclaved. To each tube containing 5.0 ml of liquid agar at 45° C., 20 mg of solid test compound was added, to give a final concentration of 4 mg/ml. The agar was solidified in slants. The fungal cultures were then innoculated. […]

Epidermophyton floccosum [4] = assay: Direct addition method, solid compound in Sabouraud dextrose agar; type: cell-based; parameters: key: +++: Maximum Fungal Growth; ++: Moderate Fungal Growth; +: Minimum Fungal Growth; +/−: Very little Fungal Growth; −: No Fungal Growth; conditions: 4 mg/mL of agar; 12th day after inoculation
Procedure, shortened: as §2

Microsporum canis [5] = assay: as above; type: cell-based; parameters: key: +++: Maximum Fungal Growth; ++: Moderate Fungal Growth; +: Minimum Fungal Growth; +/−: Very little Fungal Growth; −: No Fungal Growth; conditions: 4 mg/mL of agar; 12th day after inoculation
Procedure, shortened: as §2

Pityrosporum ovale [6] = assay: as above; type: cell-based; parameters: key: +++: Maximum Fungal Growth; ++: Moderate Fungal Growth; +: Minimum Fungal Growth; +/−: Very little Fungal Growth; −: No Fungal Growth; conditions: 4 mg/mL of agar; 12th day after inoculation
Procedure, shortened: as §2

Trichophyton rubrum [7] = assay: as above; type: cell-based; parameters: key: +++: Maximum Fungal Growth; ++: Moderate Fungal Growth; +: Minimum Fungal Growth; +/−: Very Little Fungal Growth; −: No Fungal Growth; conditions: 4 mg/mL of agar; 12th day after inoculation
Experimental: as §1

Microsporum canis [8] = assay: Agar dilution method, growth on Sabouraud dextrose agar slants; type: cell-based; parameters: key: +++: Maximum Fungal Growth; ++: Moderate Fungal Growth; +: Minimum Fungal Growth; +/−: Very little Fungal Growth; −: No Fungal Growth; conditions: 12th day after inoculation
Procedure, shortened: (§3)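 Compound in DMSO was mixed into molten Sabouraud dextrose agar at 45 °C to the final test concentrations, then set as slants and inoculated with the fungal culture. Slants were incubated 10–12 days at 25–28 °C, with growth scored every second day.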

Microsporum gypseum [9] = assay: as above; type: cell-based; parameters: key: +++: Maximum Fungal Growth; ++: Moderate Fungal Growth; +: Minimum Fungal Growth; +/−: Very little Fungal Growth; −: No Fungal Growth; conditions: 12th day after inoculation
Procedure, shortened: as §3

Pityrosporum ovale [10] = assay: as above; type: cell-based; parameters: key: +++: Maximum Fungal Growth; ++: Moderate Fungal Growth; +: Minimum Fungal Growth; +/−: Very little Fungal Growth; −: No Fungal Growth; conditions: 12th day after inoculation
Procedure, shortened: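 Compound, dissolved in DMSO, was mixed into molten Sabouraud dextrose agar at 45 °C and set as slants before fungal inoculation. Slants were incubated at 25-28 °C for 10-12 days, with growth scored every second day.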

Trichophyton rubrum [11] = assay: as above; type: cell-based; parameters: key: +++: Maximum Fungal Growth; ++: Moderate Fungal Growth; +: Minimum Fungal Growth; +/−: Very little Fungal Growth; −: No Fungal Growth; conditions: 12th day after inoculation
Procedure, shortened: as §3

Microsporum audouinni [12] = assay: as above; type: cell-based, Microsporum audouinii; parameters: key: +++: Maximum Fungal Growth; ++: Moderate Fungal Growth; +: Minimum Fungal Growth; +/−: Very little Fungal Growth; −: No Fungal Growth; conditions: 12th day after inoculation
Procedure, shortened: as §3

Trichophyton tonsuran = assay: as above; type: cell-based, Trichophyton tonsurans; parameters: key: +++: Maximum Fungal Growth; ++: Moderate Fungal Growth; +: Minimum Fungal Growth; +/−: Very little Fungal Growth; −: No Fungal Growth; conditions: 12th day after inoculation
Procedure, shortened: as §3

[13] = system: Trichophyton mentagrophyte; assay: as above; type: cell-based, Trichophyton mentagrophytes; parameters: key to Fungal growth: +++: Maximum Fungal Growth; ++: Moderate Fungal Growth; +: Minimum Fungal Growth; +/−: Very little Fungal Growth; −: No Fungal Growth; conditions: 12th day after inoculation
Procedure, shortened: as §3

Epidermophyton floccosum [14] = assay: as above; type: cell-based; parameters: key to Fungal growth: +++: Maximum Fungal Growth; ++: Moderate Fungal Growth; +: Minimum Fungal Growth; +/−: Very little Fungal Growth; −: No Fungal Growth; conditions: for Fungal growth: 12th day after inoculation
Procedure, shortened: as §3

Epidermophyton floccosum [15] = assay: Summary of anti-fungal assays (direct addition, agar dilution, liquid culture); type: cell-based; conditions: stated in words (Tables 1a/1b, text to Table 5); listed as betulin-3,28-diphthalate
Experimental: (§4) This example summarizes the results of various other assays of the anti-fungal activity of betulin derivatives. Table 5 summarizes results using different assay methods—direct addition, agar dilution, and direct addition to liquid culture, as disclosed in the previous three Examples. In some cases, only one type of assay was done with a compound. In other cases, the compound was tested by multiple assays.

Microsporum audouinii = assay: as above; type: cell-based; conditions: stated in words (Tables 1a/1b, text to Table 5)
Experimental: as §4

Microsporum gypseum [16] = assay: as above; type: cell-based; conditions: stated in words (Tables 1a/1b, text to Table 5)
Experimental: as §4

Trichophyton tonsurans = assay: as above; type: cell-based; conditions: stated in words (Tables 1a/1b, text to Table 5)
Experimental: as §4

C=C(C)C1CCC2(COC(=O)C(N)C(C)C)CCC3(C)C(CCC4C5(C)CCC(OC(=O)C(N)C(C)C)C(C)(C)C5CCC43C)C12 [Betulin-3,28-di-L-valine]
best anti-fungal or anti-yeast activity by the direct addition method (Trichophyton rubrum [1]): against Trichophyton rubrum
Fungal growth (Microsporum audouinni [2]): +
Pityrosporum ovale growth (Pityrosporum ovale [3]): +/−
Fungal growth (Epidermophyton floccosum [4]): −
Fungal growth (Microsporum canis [5]): +
Fungal growth (Pityrosporum ovale [6]): −
Fungal growth (Trichophyton rubrum [7]): +/−

C=C(C)[C@@H]1CC[C@]2(COC(=O)c3ccccc3C(=O)O)CC[C@]3(C)[C@H](CC[C@@H]4[C@@]5(C)CC[C@H](OC(=O)c6ccccc6C(=O)O)C(C)(C)[C@@H]5CC[C@]43C)[C@@H]12 [Betulin-3,28-diphthalate]
Fungal growth (Microsporum canis [8]; 125 μg/ml): ++
Fungal growth (Microsporum canis [8]; 250 μg/ml): +
Fungal growth (Microsporum canis [8]; 500 μg/ml): −
Fungal growth (Microsporum canis [8]; 1000 μg/ml): −
Fungal growth (Microsporum gypseum [9]; 125 μg/ml): ++
Fungal growth (Microsporum gypseum [9]; 250 μg/ml): +
Fungal growth (Microsporum gypseum [9]; 500 μg/ml): −
Fungal growth (Microsporum gypseum [9]; 1000 μg/ml): −
Fungal growth (Pityrosporum ovale [10]; 125 μg/ml): +++
Fungal growth (Pityrosporum ovale [10]; 250 μg/ml): +++
Fungal growth (Pityrosporum ovale [10]; 500 μg/ml): +++
Fungal growth (Pityrosporum ovale [10]; 1000 μg/ml): ++
Fungal growth (Trichophyton rubrum [11]; 125 μg/ml): ++
Fungal growth (Trichophyton rubrum [11]; 250 μg/ml): ++
Fungal growth (Trichophyton rubrum [11]; 500 μg/ml): +
Fungal growth (Trichophyton rubrum [11]; 1000 μg/ml): −
Fungal growth (Microsporum audouinni [12]; 125 μg/ml): ++
Fungal growth (Microsporum audouinni [12]; 250 μg/ml): +
Fungal growth (Microsporum audouinni [12]; 500 μg/ml): −
Fungal growth (Microsporum audouinni [12]; 1000 μg/ml): −
Fungal growth (Trichophyton tonsuran; 125 μg/ml): +++
Fungal growth (Trichophyton tonsuran; 250 μg/ml): ++
Fungal growth (Trichophyton tonsuran; 500 μg/ml): +/−
Fungal growth (Trichophyton tonsuran; 1000 μg/ml): −
Fungal growth ([13]; 125 μg/ml): ++
Fungal growth ([13]; 250 μg/ml): +
Fungal growth ([13]; 500 μg/ml): −
Fungal growth ([13]; 1000 μg/ml): −
Fungal growth (Epidermophyton floccosum [14]; 125 μg/ml): ++
Fungal growth (Epidermophyton floccosum [14]; 250 μg/ml): ++
Fungal growth (Epidermophyton floccosum [14]; 500 μg/ml): +/−
Fungal growth (Epidermophyton floccosum [14]; 1000 μg/ml): −
best antifungal or anti-yeast activity by the agar dilution method (Epidermophyton floccosum [14]; against Epidermophyton floccosum): against Epidermophyton floccosum
Active against Epidermophyton floccosum (Epidermophyton floccosum [15]): against Epidermophyton floccosum
Active against Microsporum audouinii (Microsporum audouinii): Microsporum audouinii
Active against Microsporum gypseum (Microsporum gypseum [16]): Microsporum gypseum
Active against Trichophyton tonsurans (Trichophyton tonsurans): Trichophyton tonsurans

C[C@@H]1[C@H](O)[C@@H](C)/C=C/C=C/CC/C=C/C=C/C=C/C=C/C(O[C@H]2O[C@H](C)[C@@H](O)[C@H](N)[C@@H]2O)CC2O[C@](O)(CC(O)C(O)CCC(O)CC(O)CC(O)CC(=O)O[C@H]1C)CC(O)C2C(=O)O (some centres unmarked) [Nystatin, reference compound]
Fungal growth (Microsporum canis [8]; 125 μg/ml): +
Fungal growth (Microsporum canis [8]; 250 μg/ml): +/−
Fungal growth (Microsporum canis [8]; 500 μg/ml): −
Fungal growth (Microsporum canis [8]; 1000 μg/ml): −
Fungal growth (Microsporum gypseum [9]; 125 μg/ml): +
Fungal growth (Microsporum gypseum [9]; 250 μg/ml): +/−
Fungal growth (Microsporum gypseum [9]; 500 μg/ml): −
Fungal growth (Microsporum gypseum [9]; 1000 μg/ml): −
Fungal growth (Pityrosporum ovale [10]; 125 μg/ml): +
Fungal growth (Pityrosporum ovale [10]; 250 μg/ml): +/−
Fungal growth (Pityrosporum ovale [10]; 500 μg/ml): −
Fungal growth (Pityrosporum ovale [10]; 1000 μg/ml): −
Fungal growth (Trichophyton rubrum [11]; 125 μg/ml): +
Fungal growth (Trichophyton rubrum [11]; 250 μg/ml): +
Fungal growth (Trichophyton rubrum [11]; 500 μg/ml): +/−
Fungal growth (Trichophyton rubrum [11]; 1000 μg/ml): −
Fungal growth (Microsporum audouinni [12]; 125 μg/ml): −
Fungal growth (Microsporum audouinni [12]; 250 μg/ml): −
Fungal growth (Microsporum audouinni [12]; 500 μg/ml): −
Fungal growth (Microsporum audouinni [12]; 1000 μg/ml): −
Fungal growth (Trichophyton tonsuran; 125 μg/ml): +
Fungal growth (Trichophyton tonsuran; 250 μg/ml): +/−
Fungal growth (Trichophyton tonsuran; 500 μg/ml): −
Fungal growth (Trichophyton tonsuran; 1000 μg/ml): −
Fungal growth ([13]; 125 μg/ml): +
Fungal growth ([13]; 250 μg/ml): +
Fungal growth ([13]; 500 μg/ml): −
Fungal growth ([13]; 1000 μg/ml): −
Fungal growth (Epidermophyton floccosum [14]; 125 μg/ml): +/−
Fungal growth (Epidermophyton floccosum [14]; 250 μg/ml): −
Fungal growth (Epidermophyton floccosum [14]; 500 μg/ml): −
Fungal growth (Epidermophyton floccosum [14]; 1000 μg/ml): −
Fungal growth (Microsporum audouinni [2]): −
Growth inhibition of Pityrosporum ovale by the direct addition method (Pityrosporum ovale [3]; 4 mg/ml): inhibits growth
Pityrosporum ovale growth (Pityrosporum ovale [3]): +/−
Fungal growth (Epidermophyton floccosum [4]): −
Fungal growth (Microsporum canis [5]): −
Fungal growth (Pityrosporum ovale [6]): −
Fungal growth (Trichophyton rubrum [7]): +/−
